According to US11707537B2, “Conformational restriction of cyanine fluorophores in far-red and near-IR range” (The United States of America, as represented by the …, priority 2017, dated 2023):
Marks after values point to notes of the source that are not given here. Each block holds one compound with its values, some of them ahead of it.

How the values were obtained:
Type in all cases: physicochemical
[1] = Temperature dependence of fluorescence emission; settings: in ethanol
Text: FIG. 7 is a graph showing the temperature dependence of fluorescence emission from compounds 4 (squares) and 10 (circles) in ethanol.
This is also due to photoisomerization in compound 10, which becomes more efficient at higher temperatures. The substantially longer lifetimes of compounds 4 and 7 relative to the unrestrained cyanine 10 point to significant potential for fluorescence lifetime imaging microscopy (FLIM).

Fluorescence lifetime = settings: for solvent viscosity sensitivity of fluorescence lifetime and quantum yield: solvents of Table 2
[2] = Absorbance and molar absorption coefficient (Beer's law); settings: for shift in λmax: relative to unrestricted compound 10
Text: (§1) All commercially obtained reagents were used as received. 2,3,3-trimethyl indoline (S1), malonaldehyde bis(phenylimine) monohydrochloride, Grubb's 2nd generation and Hoyveda-Grubbs 2nd generation catalysts were purchased from Sigma-Aldrich (St. Louis, Mo.). Acrolein dimethyl acetal (2) was purchased from TCI America (Portland, Oreg.). 4-hydrazinylbenzoic acid (S5) was ordered from Oakwood Chemical (Estill, S.C.). 2-(2-bromoethyl)-1,3-dioxolane was purchased from Acros Organics (Geel, Belgium). NH2-PEG8-COOH was purchased from Thermo Scientific (Waltham, Mass.). Aminophalloidin tosylate was purchased from Enzo, Inc. (Farmingdale, N.Y.). Compounds S2, S4, and S8 were synthesized according to known procedures (Hanessian et al., J. Am. Chem. Soc. 2004, 126 (19), 6064-71; Hall et al., Nucleic Acids Res. 2012, 40 (14), e108; Park et al., Bioconjugate Chem. 2012, 23 (3), 350-362). Normal phase (60 Å, 20-40 m, RediSep® Rf Gold® silica or 60 Å, 35-70 m, RediSep® Rf silica) and reversed phase (100 Å, 20-40 micron particle size, RediSep® Rf Gold® Reversed-phase C18 or C18Aq) flash column chromatography was performed on a CombiFlash© Rf 200i (Teledyne Isco, Inc., Lincoln, Nebr.). Reversed-phase preparative HPLC was performed using an Agilent 1260 Infinity II LC system utilizing a SunFire Prep C18 column (100 Å, 5 m, 10×150 mm) obtained from Waters, Co (Milford, Mass.). High-resolution LC/MS analyses were conducted on a Thermo-Fisher LTQ-Orbitrap-XL hybrid mass spectrometer system with an Ion MAX API electrospray ion source in negative ion mode. Analytical LC/MS was performed using a Shimadzu LCMS-2020 Single Quadrupole utilizing a Kinetex C18 column (100 Å, 2.6 m, 2.1×50 mm) obtained from Phenomenex, Inc (Torrance, Calif.). Runs employed a gradient of 0-90% MeCN/0.1% aqueous formic acid over 4.5 min at a flow rate of 0.2 mL/min. ^1H NMR and ^13C NMR spectra were recorded on Bruker spectrometers (at 400 or 500 MHz or at 100 or 125 MHz) and are reported relative to deuterated solvent signals. Data for ^1H NMR spectra are reported as follows: chemical shift (6 ppm), multiplicity, coupling constant (Hz), and integration. Data for ^13C NMR spectra are reported in terms of chemical shift. Absorbance curves were obtained on a Shimadzu UV-2550 spectrophotometer operated by UVProbe 2.32 software. Molar absorption coefficients (F) were determined in PBS (50 mM, pH 7.4) or methanol (MeOH) using Beer's law, from plots of absorbance vs. concentration. Measurements were performed in 10 mm path length quartz cuvettes (Hellma 111-QS) that were maintained at room temperature, and reported values are averages (n≥3). Fluorescence traces were recorded on a PTI QuantaMaster steady-state spectrofluorimeter operated by FelixGX 4.2.2 software, with 4 nm excitation and emission slit widths, and a 0.1 s integration rate. A Quantaurus-QY spectrometer (Hamamatsu, model C11374) was used to determine absolute fluorescence quantum yields (ΦF) (Suzuki et al., Phys. Chem. Chem. Phys. 112009, 9850-9860). This instrument uses an integrating sphere to measure photons absorbed and emitted by a sample. Measurements were carried out at a concentration of 250 nM in either MeOH or PBS (50 mM, pH 7.4) and self-absorption corrections were performed using the instrument software. Reported values are averages (n≥5). Data analysis and curve fitting were performed using MS Excel 2011 and GraphPad Prism 7. Light intensity measurements were performed with a Thorlabs PM200 optical power and energy meter fitted with an S120VC standard Si photodiode power sensor (200-1100 nm, 50 nW-50 mW). See JOC Standard Abbreviations and Acronyms for abbreviations (http://pubs.acs.org/paragonplus/submission/joceah/-joceah_abbreviations.pdf).

[3] = Fluorescence emission and fluorescence quantum yield
Text: as §1, with “A Quantaurus-QY spectrometer (Hamamatsu, model C11374) was used to determine absolute fluorescence quantum yields (ΦF) (Suzuki et al., Phys.” left out, “Measurements were carried out at a concentration of 250 nM in either MeOH or PBS (50 mM, pH 7.4) and self-absorption corrections were performed using the instrument software.” left out

[4] = TCEP addition, formation of phosphine-polyene adducts; settings: 10 μM, TCEP in Tris (0.20 M, pH 9.0), absorbance at λmax
Protocol: FIG. 9 is a graph showing the effect of TCEP addition on absorbance of compound 7 and AF647 (10 μM each). Absorbance at λmax (compound 7 at 670 nm and AF647 at 650 nm) as a function of TCEP concentration in Tris (0.20 M, pH 9.0).
The formation of phosphine and thiol adducts in chemical and single molecule imaging contexts was also evaluated. TCEP (tris(2-carboxyethyl)phosphine) was add to compound 7 and AF647 (Alexa Fluor 647, available through ThermoFisher Scientific) (10 μM each) (Vaughan et al., JACS 2013, 135(4):1197-1200). Absorbance at λmax (compound 7 at 670 nm and AF647 at 650 nm) as a function of TCEP concentration in Tris (0.20 M, pH 9.0). Compound 7 (circles) appeared resistant to the formation of polyene-heteroatom adducts (FIG. 9).

SMILES: CC1(C)C2=C3C=C4C=C5C6=[N+](CC[C@H]5O[C@H]4C[C@H]3CCN2c2ccccc21)c1ccccc1C6(C)C [Compound 4]
temperature sensitivity of fluorescence emission [1]: insensitive to temperature | τ (Fluorescence lifetime; Acetone): 2.9 ns | τ (Fluorescence lifetime; EtOH): 2.5 ns | τ (Fluorescence lifetime; Glycerol): 2.3 ns | τ (Fluorescence lifetime; MeCN): 2.8 ns | τ (Fluorescence lifetime; in methanol (MeOH)): 2.5 ns | solvent viscosity sensitivity of fluorescence lifetime and quantum yield (Fluorescence lifetime): largely solvent viscosity insensitive | ε ([2]; in methanol): 206,000 M^−1cm^−1 | λmax ([2]; in methanol): 662 nm | shift in λmax [2]: approximately 25 nm | ΦF ([3]; Acetone, calculated by relative method): 0.90 | ΦF ([3]; EtOH, calculated by relative method): 0.68 | ΦF ([3]; Glycerol, calculated by relative method): 0.66 | ΦF ([3]; MeCN, calculated by relative method): 0.92 | λem ([3]; in methanol): 677 nm | ΦF ([3]; in methanol (MeOH), integrating sphere): 0.69

τ (Fluorescence lifetime; in H2O): 1.7^c ns | solvent viscosity sensitivity of fluorescence lifetime and quantum yield (Fluorescence lifetime): largely solvent viscosity insensitive | λmax ([2]; in pH 7.4 PBS): 670^b nm | ε ([2]; no solvent footnote on this cell (PBS or methanol)): 190,000 M^−1cm^−1 | shift in λmax [2]: approximately 25 nm | λem ([3]; in pH 7.4 PBS): 683^b nm | formation of polyene-heteroatom adducts [4]: resistant
SMILES: CC1(C)C2=C3C=C4C=C5C6=[N+](CC[C@H]5O[C@H]4C[C@H]3CCN2c2ccc(S(=O)(=O)[O-])cc21)c1ccc(C(=O)O)cc1C6(C)C [Compound 7]
